Test results: article PMC7926623 (Marine Drugs, 2021)

Biological target: rat α6/α3β2β3 nAChR (Rattus norvegicus, UniProt P04757+P12390+P43143)
Format: cell-based

rat α6/α3β2β3 nAChR, sequence (P04757 whole entry, looked up): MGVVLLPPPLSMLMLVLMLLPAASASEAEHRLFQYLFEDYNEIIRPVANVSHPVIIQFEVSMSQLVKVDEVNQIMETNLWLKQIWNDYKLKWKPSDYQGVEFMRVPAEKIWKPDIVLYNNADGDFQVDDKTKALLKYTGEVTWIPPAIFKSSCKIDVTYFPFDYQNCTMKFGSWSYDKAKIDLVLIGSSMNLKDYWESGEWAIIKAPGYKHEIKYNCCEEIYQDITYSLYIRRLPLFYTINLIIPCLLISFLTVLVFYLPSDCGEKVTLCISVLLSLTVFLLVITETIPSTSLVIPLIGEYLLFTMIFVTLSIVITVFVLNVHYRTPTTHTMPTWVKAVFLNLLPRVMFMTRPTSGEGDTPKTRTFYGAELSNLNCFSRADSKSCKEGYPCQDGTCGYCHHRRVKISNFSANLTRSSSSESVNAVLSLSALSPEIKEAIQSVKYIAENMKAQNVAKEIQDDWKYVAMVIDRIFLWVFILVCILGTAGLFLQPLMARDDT
rat α6/α3β2β3 nAChR, sequence (P12390 whole entry, looked up): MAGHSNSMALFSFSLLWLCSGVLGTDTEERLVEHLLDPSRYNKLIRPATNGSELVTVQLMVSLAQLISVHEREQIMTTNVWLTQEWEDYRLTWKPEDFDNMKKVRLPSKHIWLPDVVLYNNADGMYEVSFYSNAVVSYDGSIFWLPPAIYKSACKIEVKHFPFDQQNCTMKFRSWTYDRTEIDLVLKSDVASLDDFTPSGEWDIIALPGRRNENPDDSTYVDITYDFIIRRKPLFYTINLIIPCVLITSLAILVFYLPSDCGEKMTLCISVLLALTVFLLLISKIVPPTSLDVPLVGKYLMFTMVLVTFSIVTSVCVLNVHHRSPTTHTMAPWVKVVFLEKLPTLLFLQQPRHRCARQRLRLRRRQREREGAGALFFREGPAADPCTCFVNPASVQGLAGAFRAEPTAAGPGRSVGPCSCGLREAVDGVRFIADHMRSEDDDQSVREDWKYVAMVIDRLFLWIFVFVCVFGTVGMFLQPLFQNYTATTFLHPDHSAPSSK
rat α6/α3β2β3 nAChR, sequence (P43143 whole entry, looked up): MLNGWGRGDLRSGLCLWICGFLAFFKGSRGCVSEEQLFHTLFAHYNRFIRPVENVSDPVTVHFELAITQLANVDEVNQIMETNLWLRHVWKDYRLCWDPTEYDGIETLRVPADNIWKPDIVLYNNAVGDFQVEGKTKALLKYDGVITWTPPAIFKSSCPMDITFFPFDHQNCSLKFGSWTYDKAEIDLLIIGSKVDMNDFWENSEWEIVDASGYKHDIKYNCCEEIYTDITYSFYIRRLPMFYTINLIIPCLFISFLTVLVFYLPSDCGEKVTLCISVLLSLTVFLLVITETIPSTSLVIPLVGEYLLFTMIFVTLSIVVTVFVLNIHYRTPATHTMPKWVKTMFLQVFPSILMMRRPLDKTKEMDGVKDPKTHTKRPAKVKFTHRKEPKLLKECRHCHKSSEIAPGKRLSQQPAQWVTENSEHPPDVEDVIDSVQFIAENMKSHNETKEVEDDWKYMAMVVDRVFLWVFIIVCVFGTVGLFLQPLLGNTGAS

Substance: α-Conotoxin TxIB
- inhibition on α6/α3β2β3 nAChR: about 88%
